Values quoted from earlier work, collected in PubChem BioAssay AID1259409 (Chemical Carcinogenesis Research Information System (CCRIS), 2018).

Test system: rodent chemically induced tumor inhibition, incidence and multiplicity
Experiment: CCRIS tumor inhibitor studies

In the case of CC/C(=C(\c1ccccc1)c1ccc(OCCN(C)C)cc1)c1ccccc1, the “tumour outcome (control, treated, inhibition, significance)” value (Carcinogen: 1,2-DIMETHYLHYDRAZINE HYDROCHLORIDE, 306-37-6, Dose [Inhibitor]: 0, 0.5 UG/G/D IN DIET FOR 28 WK (STUDY DURATION: 28 WK), Route [Inhibitor]: ORAL, Species: RAT, Strain/Sex: SPRAGUE-DAWLEY/FEMALE, Target Tissue: Type of Lesion: COLON: TUMOR, Dose [Carcinogen]: 20 MG/KG BW 1/WK FOR 28 WK, Promoter: NONE USED) is given as 26/36 (72%), 17/33 (52%), 28%, p<0.001, the “tumour outcome (control, treated, inhibition, significance)” value (Carcinogen: 3-METHYLCHOLANTHRENE, 56-49-5, Dose [Inhibitor]: 0, 50 UG/KG FOR DURATION OF STUDY (STUDY DURATION: LIFETIME), Route [Inhibitor]: SUBCUTANEOUS, Species: MOUSE, Strain/Sex: SWISS/FEMALE, Target Tissue: Type of Lesion: CERVIX: CARCINOMA, Dose [Carcinogen]: CARCINOGEN AND BEESWAX (1:3) IMPREGNATED THREAD INSERTED IN THE CANAL OF THE UTERINE CERVIX, Promoter: NONE USED) is given as 60%, 30%, 50%, p<0.01 and the “tumour outcome (control, treated, inhibition, significance)” value (Carcinogen: 3-METHYLCHOLANTHRENE, 56-49-5, Dose [Inhibitor]: 0, 50 UG/KG GIVEN TO OOPHERECTOMIZED MICE 3/WK FOR DURATION OF STUDY (STUDY DURATION: LIFETIME), Route [Inhibitor]: SUBCUTANEOUS, Species: MOUSE, Strain/Sex: SWISS/FEMALE, Target Tissue: Type of Lesion: CERVIX: CARCINOMA, Dose [Carcinogen]: CARCINOGEN AND BEESWAX (1:3) IMPREGNATED THREAD INSERTED IN THE CANAL OF THE UTERINE CERVIX, Promoter: NONE USED) is given as 62%, 27%, 56%, p<0.01. The “tumour outcome (control, treated, inhibition, significance)” value (Carcinogen: 7,12-DIMETHYLBENZ[A]ANTHRACENE (57-97-6), Dose [Inhibitor]: 0.125 MG/KG DIET FOR 17 WKS (STUDY DURATION: 17 WKS), Route [Inhibitor]: DIET, Species: RAT, Strain/Sex: SPRAGUE-DAWLEY/FEMALE (20,18)/(20,18), Target Tissue: Type of Lesion: MAMMARY, Dose [Carcinogen]: 12.5 MG ONCE 1 WK AFTER START OF DIETS (STUDY DURATION: 17 WKS)) was 95%, 73%, 23%, p=0.015, the “tumour outcome (control, treated, inhibition, significance)” value (Carcinogen: 7,12-DIMETHYLBENZ[A]ANTHRACENE (DMBA) (57-97-6), Dose [Inhibitor]: 50 MG/KG/D FOR 37 WK (STUDY DURATION: 37 WK), Route [Inhibitor]: ORAL GAVAGE, Species: MOUSE, Strain/Sex: SENCAR/FEMALE, Target Tissue: Type of Lesion: MAMMARY: CARCINOMA, Dose [Carcinogen]: 20 UG/D FOR 6 WKS (STUDY DURATION: 37 WKS), Promoter: MEDROXYPROGESTERONE ACETATE (71-58-9)) was 10/21 (48%); 0%, 100%, p=0.0004 and the “tumour outcome (control, treated, inhibition, significance)” value (Carcinogen: 7,12-DIMETHYLBENZ[A]ANTHRACENE (DMBA) [57-97-6], Dose [Inhibitor]: 50 MG/KG/D FOR 52 WK (STUDY DURATION: 52 WK), Route [Inhibitor]: ORAL GAVAGE, Species: MOUSE, Strain/Sex: SENCAR/FEMALE, Target Tissue: Type of Lesion: MAMMARY: CARCINOMA, Dose [Carcinogen]: 20 UG/D FOR 6 WKS, Promoter: MEDROXYPROGESTERONE ACETATE (71-58-9)) was 13/23 (57%); 0/20 (0%), 100%, p=0.00003. For the same compound, the “tumour outcome (control, treated, inhibition, significance)” value (Carcinogen: 17 BETA-ESTRADIOL, 50-28-2, Dose [Inhibitor]: 25 MG PELLETS CONTAINING 90% TAMOXIFEN ADMINISTERED ONCE AT BEGINNING OF STUDY AND ONCE AT 3.5 MO, ADMINISTERED CONCURRE, Route [Inhibitor]: SUBCUTANEOUS IMPLANT, Species: HAMSTER, Strain/Sex: SYRIAN/MALE, Target Tissue: Type of Lesion: KIDNEY: RENAL CARCINOMA, Dose [Carcinogen]: 25 MG PELLETS CONTAINING 90% ESTRADIOL ONCE AT BEGINNING OF STUDY AND ONCE AT 3.5 MO, Promoter: NONE USED) was 3/3 (100%), 2/8 (25%), 75%, not calculated, the “tumour outcome (control, treated, inhibition, significance)” value (Carcinogen: ETHYL METHANESULFONATE, 62-50-0, Dose [Inhibitor]: 0, 50 MG/KG 1/WK FOR 4 WK BEGINNING POST CARCINOGEN TREATMENT (STUDY DURATION: 30 WK), Route [Inhibitor]: SUBCUTANEOUS, Species: RAT, Strain/Sex: WISTAR/FEMALE, Target Tissue: Type of Lesion: MAMMARY GLAND: CARCINOMA, Dose [Carcinogen]: 0.01 MOLAR SOLUTION IN DRINKING WATER FOR 12 WK, Promoter: NONE USED) was 100%, 100%, 0%, not significant and the “tumour outcome (control, treated, inhibition, significance)” value (Carcinogen: ETHYL METHANESULFONATE, 62-50-0, Dose [Inhibitor]: 0, 50 MG/KG 1/WK FOR 4 WK CONCOMITANTLY WITH CARCINOGEN TREATMENT (STUDY DURATION: 30 WK), Route [Inhibitor]: SUBCUTANEOUS, Species: RAT, Strain/Sex: WISTAR/FEMALE, Target Tissue: Type of Lesion: MAMMARY GLAND: CARCINOMA, Dose [Carcinogen]: 0.01 MOLAR SOLUTION IN DRINKING WATER FOR 12 WK, Promoter: NONE USED) was 100%, 50%, 50%, p<0.01. For the same compound, the “tumour outcome (control, treated, inhibition, significance)” value (Carcinogen: ETHYLNITROSOUREA [759-73-9], Dose [Inhibitor]: 420 MG/K DIET FOR 60 WK (STUDY DURATION: 60 WK), Route [Inhibitor]: DIET, Species: MOUSE, Strain/Sex: B6C3F1/MALE (?,44)/(?,47), Target Tissue: Type of Lesion: LIVER: HEPATOCELLULAR CARCINOMA, Dose [Carcinogen]: 120 UG/KG ONCE) was 11/44 (25%), 2/47 (4%), 84%, p<0.001, the “tumour outcome (control, treated, inhibition, significance)” value (Carcinogen: N-ETHYL-N'-NITRO-N-NITROSOGUANADINE, 4245-77-6, Dose [Inhibitor]: 0, 70 MG/KG BW IN CHOLESTEROL IMPLANTED 1 WK POST CARCINOGEN DOSE, IMPLANTS REPLACED AT 6 TO 8 WK INTERVALS FOR THE DURA, Route [Inhibitor]: SUBCUTANEOUS IMPLANT, Species: RAT, Strain/Sex: DONRYU/FEMALE, Target Tissue: Type of Lesion: UTERUS: ADENOCARCINOMA, Dose [Carcinogen]: 20 MG/KG BW ONCE, Promoter: NONE USED) was 9/29 (31%), 0/30 (0%), 100%, not calculated and the “tumour outcome (control, treated, inhibition, significance)” value (Carcinogen: N-ETHYL-N'-NITRO-N-NITROSOGUANADINE, 4245-77-6, Dose [Inhibitor]: 0, 70 MG/KG BW IN CHOLESTEROL IMPLANTED 20 WKS POST CARCINOGEN DOSE, IMPLANTS REPLACED AT 6 TO 8 WK INTERVALS FOR DURATI, Route [Inhibitor]: SUBCUTANEOUS IMPLANT, Species: RAT, Strain/Sex: DONYRU/FEMALE, Target Tissue: Type of Lesion: UTERUS: ADENOCARCINOMA, Dose [Carcinogen]: 20 MG/KG BW ONCE, Promoter: NONE USED) was 9/29 (31%), 0/29 (0%), 100%, not calculated. The “tumour outcome (control, treated, inhibition, significance)” value (Carcinogen: N-METHYL-N'-NITROSOUREA, 684-93-5, Dose [Inhibitor]: 0, 0.125 MG/KG IN DIET FOR DURATION OF STUDY BEGINNING 60 D PRIOR TO CARCINOGEN DOSE (STUDY DURATION: 240 D), Route [Inhibitor]: ORAL, Species: RAT, Strain/Sex: SPRAGUE-DAWLEY/FEMALE, Target Tissue: Type of Lesion: MAMMARY GLAND: TUMOR, Dose [Carcinogen]: 50 MG/KG BW ONCE, Promoter: NONE USED) was 68%, 62%, 9%, not significant, the “tumour outcome (control, treated, inhibition, significance)” value (Carcinogen: N-METHYL-N'-NITROSOUREA, 684-93-5, Dose [Inhibitor]: 0, 0.25 MG/KG IN DIET FOR DURATION OF STUDY BEGINNING 60 D PRIOR TO CARCINOGEN DOSE (STUDY DURATION: 240 D), Route [Inhibitor]: ORAL, Species: RAT, Strain/Sex: SPRAGUE-DAWLEY/FEMALE, Target Tissue: Type of Lesion: MAMMARY GLAND: TUMOR, Dose [Carcinogen]: 50 MG/KG BW ONCE, Promoter: NONE USED) was 80%, 25%, 69%, p<0.005 and the “tumour outcome (control, treated, inhibition, significance)” value (Carcinogen: N-METHYL-N-NITROSOUREA, 684-93-5, Dose [Inhibitor]: 0, 0.2 MG/KG IN DIET FOR THE DURATION OF STUDY BEGINNING 7 D PRIOR TO CARCINOGEN DOSE (STUDY DURATION: 187 D), Route [Inhibitor]: ORAL, Species: RAT, Strain/Sex: SPRAGUE-DAWLEY/FEMALE, Target Tissue: Type of Lesion: MAMMARY GLAND: TUMOR, Dose [Carcinogen]: 50 MG/KG BW ONCE, Promoter: NONE USED) was 100%, 100%, 0%, not significant.
